According to patent US20150025131A1 (priority 2013, published 2015):
Entries after “also recorded” stand apart in the source; their conditions may differ.

Columns and labels:
[1] = tested on: PHA activated T cells isolated from human peripheral blood; test: Thymidine incorporation T cell proliferation assay (PHA activated); type: cell-based; conditions: 72 h
Description: Heparinized blood was obtained by vein puncture aseptically from healthy volunteers (25-38 years age). Blood (10 mL) was mixed with incomplete RPMI, layered on 5 mL of Lymphocyte separation medium and centrifuged at 400 g for 20 min at room temperature. Buffy layer was collected and mixed with incomplete RPMI and centrifuged at 4° C. for 10 min at 300 g. Cells were obtained after the RBCs (if any) lysis using hypotonic solution, and washed at 4° C. for 10 min at 300 g. The cells were then suspended in complete RPMI containing 5% FBS and their concentration was adjusted to 2×10^6 cells/mL for T-cell proliferation assay.
Cell proliferation assay was conducted through standard thymidine incorporation technique. Briefly, isolated T-cells from peripheral blood of healthy individuals were plated at a concentration of 2×10^6 cells/mL in a round bottom 96-well tissue culture plates. Cells were stimulated with 7.5 μg/mL of PHA. […] The plate was then incubated for 72 hours at 37° C. in 5% CO2 incubator. After 72 hours, cultures were pulsed with 0.5 μCi/well tritiated thymidine (Amersham Pharmacia Biotech), and further incubated for 18 h. Cells were harvested onto a glass fiber filters using cell harvester (Innotech, Dottikon, Switzerland). The level of the thymidine incorporated into the cells was measured by a liquid scintillation counter (LS 6500, Beckman Coulter, Fullerton, Calif., USA). Results were expressed as mean count per minute (CPM). The inhibitory activity of compounds on T-lymphocyte proliferation was calculated using the following formula: […]

[2] = tested on: serum TNF-α; test: Adjuvant induced arthritis model, serum TNF-α; type: in vivo, Sprague Dawley rats; conditions: AIA rats, daily intraperitoneal; Patuletin 25 mg/kg, indomethacin 5 mg/kg
Description: (§1) All studies were carried out using Female Sprague Dawley (SD) rats weighing 150-250 gms. Animals were kept at 21±2° C. and on a 12-h light/dark cycle, received standardized pelleted diet and tap water. Experiments were performed under the ethical guidelines of the International Association for the study of pain in conscious animals. Each group contains 12 animals with randomly distributed weights into each treatment group.
(§2) Arthritis was induced by injecting freshly prepared 100 μL of 1 mg suspension of lyophilized Mycobacterium tuberculosis H37Ra (MT H37Ra; DIFCO Laboratories, Detroit, Mich., USA), subcutaneously at the rat tail base using sterile hypodermic needle. Inoculation was carried out under anesthesia with a combination of 20 mg/kg ketamine and 5 mg/kg xylazine, injected intraperitoneally. Compound and the reference drug were administered daily, intraperitoneally using sterile syringes. The positive control received vehicle (5% DMSO+PBS) or saline only; treatment groups received test compounds (25 mg/kg), whereas reference group received indomethacin (5 mg/kg). The doses of the test compounds were selected after preliminary dose finding studies. […]
(§3) The quantitative measurement of TNF-α and IL-1β was done in serum of all groups of animals including arthritic and non-arthritic using commercial ELISA assay kits (Abcam, USA) according to the manufacturer's instructions. […]

[3] = tested on: rheumatoid factor; test: Adjuvant induced arthritis model, serum RA factor; type: in vivo, Sprague Dawley rats; conditions: AIA rats, daily intraperitoneal; Patuletin 25 mg/kg, indomethacin 5 mg/kg
Description: as §1
Arthritis was induced by injecting freshly prepared 100 μL of 1 mg suspension of lyophilized Mycobacterium tuberculosis H37Ra (MT H37Ra; DIFCO Laboratories, Detroit, Mich., USA), subcutaneously at the rat tail base using sterile hypodermic needle. Inoculation was carried out under anesthesia with a combination of 20 mg/kg ketamine and 5 mg/kg xylazine, injected intraperitoneally. Compound and the reference drug were administered daily, intraperitoneally using sterile syringes. […]
Measurement of RA factor in rat serum was determined using Tina-quant RFII Kit (Roche Diagnostics, USA) and automated analyzers according to manufacturer's instructions. The test principle involves the reaction of latex bound heat inactivated IgG (antigen) with RF antibodies in the sample to form Ag/Ab complex resulting in agglutination which can be measured turbidimetrically.

[4] = tested on: serum peroxide; test: Adjuvant induced arthritis model, serum peroxide; type: in vivo, Sprague Dawley rats; conditions: AIA rats, daily intraperitoneal; Patuletin 25 mg/kg, indomethacin 5 mg/kg
Description: as §1
(§4) Arthritis was induced by injecting freshly prepared 100 μL of 1 mg suspension of lyophilized Mycobacterium tuberculosis H37Ra (MT H37Ra; DIFCO Laboratories, Detroit, Mich., USA), subcutaneously at the rat tail base using sterile hypodermic needle. […]
(§5) Peroxide (PO) and nitric oxide (NO), in serum were determined in the serum samples of both the normal and arthritic groups, using quantitative colorimetric assay kits, i.e., the Quantichrom ™ Nitric Oxide Assay Kit, and the Quantichrome™ Peroxide assay kit Diox-250 (BioAssay Systems, Hayward, Calif., USA). […] The samples were analyzed in duplicates using 96-well plate and the plate was read at 540 nm. The Quantichrome™ Peroxide assay kit Diox −250 system is an improved method which utilizes the oxidation of Fe^++ by peroxide present in the analyzed sample resulting in formation of purple complex that gives the accurate measure of peroxide level in the sample when read at 540-610 nm.

[5] = tested on: serum IL-1β; test: Adjuvant induced arthritis model, serum IL-1β; type: in vivo, Sprague Dawley rats; conditions: AIA rats, daily intraperitoneal; Patuletin 25 mg/kg, indomethacin 5 mg/kg
Description: as §1, §2, §3

[6] = tested on: serum nitric oxide; test: Adjuvant induced arthritis model, serum nitric oxide; type: in vivo, Sprague Dawley rats; conditions: AIA rats, daily intraperitoneal; Patuletin 25 mg/kg, indomethacin 5 mg/kg
Description: as §1, §4, §5

[7] = tested on: knee joints of arthritic rats; test: Adjuvant induced arthritis model, histopathology of knee joints (H & E); type: in vivo, Sprague Dawley rats; conditions: H & E staining
Description: as §1
Arthritis was induced by injecting freshly prepared 100 μL of 1 mg suspension of lyophilized Mycobacterium tuberculosis H37Ra (MT H37Ra; DIFCO Laboratories, Detroit, Mich., USA), subcutaneously at the rat tail base using sterile hypodermic needle. Inoculation was carried out under anesthesia with a combination of 20 mg/kg ketamine and 5 mg/kg xylazine, injected intraperitoneally. Compound and the reference drug were administered daily, intraperitoneally using sterile syringes. The positive control received vehicle (5% DMSO+PBS) or saline only; treatment groups received test compounds (25 mg/kg), whereas reference group received indomethacin (5 mg/kg). The doses of the test compounds were selected after preliminary dose finding studies. The treatment was started on the same day after vaccination.
The animals were sacrificed at the end of the experiment and samples were taken from the knee joints. Sample fixation were done using 10% formalin following decalcification. The samples were then processed, embedded, cut, mounted and stained with hematoxylin and eosin (H & E) dye for microscopic evaluation.

[8] = tested on: TNF-α production; test: TNF-α production from PMA differentiated, LPS activated THP-1 cells (ELISA); type: cell-based, human; conditions: 4 h
Description: The symbol * and δ represents the P≦0.03 and P≦0.006, respectively.
FIG. 2 depicts the effect of pentoxyfillin (PTX) on TNF-α production (pg/mL) Human monocytic leukemia THP-1 cells were differentiated and activated with 20 ng/mL of PMA and 50 ng/mL of LPS, respectively and incubated with different concentrations of PTX for 4h, the supernatant was analyzed for the level of TNF-α by ELISA. The symbol * represents P≦of 0.03.
THP-1 (human monocytic leukemia) cells were maintained in RPMI-1640 supplemented with 10% FBS, 2 mmol/L glutamine, 5.5 mmol/L glucose, 50 μmol/L mercaptoethanol, 1 mmol/L sodium pyruvate, and 10 mmol/L HEPES and incubated at 37° C. in 5% CO2. Cells were grown in […] culture flask until they attained 70% confluency. Cells were then plated in 24-well tissue culture plates at a concentration of 2.5×10^5 cells/mL. Cells were differentiated into macrophages using PMA at a final concentration of 20 ng/mL and further incubated at 37° C. in 5% CO2 environment for 24 h. […] After addition of the compound cells were then incubated for 4 h for TNF-α production and 18 h for IL-1β production at 37° C. in 5% CO2. The supernatants were harvested and analyzed for the level of TNF-α and IL-1β, by human TNF-α and IL-1β Duo set ELISA kits, and according to the manufacturer's instructions.

[9] = tested on: ROS production from PMA activated RAW. 267 cells (murine macrophages); test: Lucigenin enhanced (myeloperoxidase independent) oxidative burst; type: cell-based; conditions: lucigenin enhanced, PMA activated RAW. 267 cells
Description: Intracellular effect was determined using human peripheral whole blood phagocytes and isolated neutrophils and from mice peritoneum macrophages, where luminol-enhanced chemillumenescence assay was applied. The effect on myeloperoxidase independent ROS production was determined using lucigenin on murine macrophages RAW.267 cells. […] Table 2. […] 267 cells (murine macrophages). DPI is used as standard drug. Reading presents mean±SD of three determinations.

[10] = tested on: ROS production from human peripheral whole blood phagocytes; test: Luminol enhanced chemiluminescence oxidative burst, whole blood; type: cell-based; conditions: luminol enhanced, serum opsonized zymosan, read-out: Myeloperoxidase dependent Oxidative Burst (IC50 μg/mL) Whole blood
Description: (§6) Intracellular effect was determined using human peripheral whole blood phagocytes and isolated neutrophils and from mice peritoneum macrophages, where luminol-enhanced chemillumenescence assay was applied. The effect on myeloperoxidase independent ROS production was determined using lucigenin on murine macrophages RAW.267 cells.
(§7) Table 2. […] 267 cells (murine macrophages). DPI is used as standard drug. Reading presents mean±SD of three determinations.
(§8) Luminol enhanced chemiluminescence technique was applied to study the effect of compound on ROS from phagocytes, Using whole blood, neutrophil and macrophages Briefly, 25 μL diluted whole blood (1:50 dilution in sterile HBSS^++) or 25 μL of PMNs (1×10^6), or 25 μL of isolated macrophages (1×10^6) were incubated with 25 μL of compound in triplicates and using three different concentrations (1, 10 and 100 μg/mL) using white 96 wells plates. Wells received HBSS^++ and cells only without compound served as positive control. 25 μL of serum opsonized zymosan-A (SOZ), followed by 25 μL luminol (7×10^−5 M), was added to each well to maintain a volume of 100 μL/well. Plates were then incubated at 37° C. for 30 minutes in the thermostated chamber of the luminometer. Results were monitored as relative light unit (RLU) reading, with peak and total integral values set with repeated scans at 60 seconds intervals, and 1 second points measuring time.

[11] = tested on: ROS production from human neutrophils; test: Luminol enhanced chemiluminescence oxidative burst, isolated neutrophils; type: cell-based; conditions: Neutrophil, serum opsonized zymosan, read-out: Myeloperoxidase dependent Oxidative Burst (IC50 μg/mL) Neutrophils
Description: as §6, §7
Heparinized blood was obtained by vein puncture aseptically, from healthy volunteers (25-38 years age). The buffy coat containing polymorhonuclear neutrophils (PMNs) was collected by dextran sedimentation, and cells were isolated after the LSM density gradient centrifugation. […]
as §8, with “Wells received HBSS^++ and cells only without compound served as positive control. 25 μL of serum opsonized zymosan-A (SOZ), followed by 25 μL luminol (7×10^−5 M), was added to each well to maintain a volume of 100 μL/well. Plates were then incubated at 37° C. for 30 minutes in the thermostated chamber of the luminometer.” left out

[12] = tested on: ROS production from mice peritoneal macrophages; test: Luminol enhanced chemiluminescence oxidative burst, mice peritoneal macrophages; type: cell-based; conditions: Mus musculus, Peritoneal macrophage, serum opsonized zymosan, read-out: Myeloperoxidase dependent Oxidative Burst (IC50 μg/mL) Macrophages
Description: as §6, §7
NMRI mice of 25 to 30 gm weight were injected aseptically with 1 mL of heat inactivated fetal bovine serum (FBS) in the peritoneum cavity, using sterile 1 mL syringe and mice were kept for further 72 h. […] Cells were counted and concentration was adjusted to 1×10^6/mL for chemiluminescence assay.
as §8, with “Wells received HBSS^++ and cells only without compound served as positive control. 25 μL of serum opsonized zymosan-A (SOZ), followed by 25 μL luminol (7×10^−5 M), was added to each well to maintain a volume of 100 μL/well. Plates were then incubated at 37° C. for 30 minutes in the thermostated chamber of the luminometer.” left out

For C[C@]12C=CC(=O)C=C1CC[C@@H]1[C@@H]2[C@@H](O)C[C@@]2(C)[C@H]1CC[C@]2(O)C(=O)CO [Prednisolone], which “Human T cell proliferation (IC50 μg/mL)” value [1] is on record?
The value was under 0.62 µg/mL.

What about the IC50 ([1]; Homo sapiens, T-cell, read-out: Human T cell proliferation (IC50 μg/mL)) of the same molecule?
The IC50 was under 0.62 µg/mL.

How did the “level of TNF-α in serum versus arthritic control group” value [2] turn out when COc1ccc2c(c1)c(CC(=O)O)c(C)n2C(=O)c1ccc(Cl)cc1 [Indomethacin, reference compound] was run?
The value was “marked decrease”.

And the “level of RA factor (rheumatoid factor) in serum versus arthritic control group” value [3]?
The value was “marked decrease”.

What about the “level of peroxide in serum versus arthritic control group” value [4] of the same molecule?
The value was “decrease; also recorded: non-significant reduction”.

What about the “level of IL-1β in serum versus arthritic control group” value [5] of the same molecule?
Its value is “significant decrease; also recorded: marked decrease”.

What about the “level of nitric oxide in serum versus arthritic control group” value [6] of the same molecule?
Its value is “marked reduction; also recorded: significant decrease”.

What about the “histopathology of knee joints (in words) versus arthritic control rats” value [7] of the same molecule?
The value was “less infiltration of lymphocytes and minimal bone destruction”.

What about the “histopathology score of knee joints” value ([7]; normal control score 0, arthritic control score 4) of the same molecule?
The value was 2.

Which “inhibition of TNF-α production (IC50)” value [8] does the source give for CC(=O)CCCCn1c(=O)c2c(ncn2C)n(C)c1=O [pentoxyfillin, reference compound] here?
Its value is 94.8 µg/mL.

Which “Myeloperoxidase independent Oxidative Burst (IC50 μg/mL) on macrophages” value [9] does the source give for [Cl-].c1ccc2c(c1)[I+]c1ccccc1-2 [DPI, reference compound] here?
The value was 1.6 ± 0.1 µg/mL.

CC(C)Cc1ccc(C(C)C(=O)O)cc1 (centres unmarked) [Ibuprofen, reference compound] was tested. Which IC50 [10] did it give?
Its IC50 is 11.2 ± 1.9 µg/mL.

And the IC50 [11]?
The IC50 was 2.5 ± 0.6 µg/mL.

What about the IC50 [12] of the same molecule?
The IC50 was 16.9 ± 2.5 µg/mL.
